Like-named read-outs stand apart in the source and are kept apart here.
Assays:
[1] = target: T1, rat or human VR1 (UniProt Q8NER1); settings: Xenopus oocytes or HEK cells over-expressing rat or human VR1; read-out: VR1 EC50 (literature); cited from earlier work
T1 construct: other: Xenopus oocytes or HEK cells over-expressing rat or human VR1

[2] = tested on: AMT; format: cell-based, rat; settings: [14C]AEA uptake, RBL-2H3 cells; read-out: AEA transport (IC50)
Method: AEA. Cells were incubated with [^14C] AEA for 5 min at 37° C., in the presence or absence of varying concentrations of the inhibitors. Residual [^14C] AEA in the incubation media after extraction with CHCl3/CH3OH 2:1 (by vol.), determined by scintillation counting of the lyophilized organic phase, was used as a measure of the AEA that was taken up by cells.
(§1) CP55940 from whole rat brain membranes.

[3] = target: T2, FAAH (Rattus norvegicus, UniProt P97612); test: Fatty acid amide hydrolase assay, rat brain membranes; format: biochemical
T2 construct: membranes prepared from frozen brains of CD rats (Charles River, France); from tissue; host or cells: brain membranes of CD rats
T2 sequence (P97612 1-579): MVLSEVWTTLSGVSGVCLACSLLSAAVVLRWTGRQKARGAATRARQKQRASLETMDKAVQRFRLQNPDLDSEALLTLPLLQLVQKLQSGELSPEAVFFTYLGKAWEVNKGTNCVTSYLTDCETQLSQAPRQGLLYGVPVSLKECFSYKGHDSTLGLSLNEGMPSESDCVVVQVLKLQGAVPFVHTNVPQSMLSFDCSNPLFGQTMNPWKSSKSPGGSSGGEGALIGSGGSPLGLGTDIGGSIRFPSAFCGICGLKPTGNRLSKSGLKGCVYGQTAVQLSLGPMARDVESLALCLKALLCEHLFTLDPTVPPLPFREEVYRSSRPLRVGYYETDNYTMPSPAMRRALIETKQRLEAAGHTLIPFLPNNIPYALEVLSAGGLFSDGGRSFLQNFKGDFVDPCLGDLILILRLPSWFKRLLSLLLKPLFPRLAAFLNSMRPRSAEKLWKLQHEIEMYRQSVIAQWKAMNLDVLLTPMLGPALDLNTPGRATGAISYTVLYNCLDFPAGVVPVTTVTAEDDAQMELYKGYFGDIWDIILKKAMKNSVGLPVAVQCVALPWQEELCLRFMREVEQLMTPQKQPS
Method: Fatty acid amide hydrolase assay—The effect of compounds on the enzymatic hydrolysis of AEA was studied using membranes prepared from frozen brains of CD rats (Charles River, France), incubated with the test compounds and [^14C] AEA (9 μM) in 50 mM Tris-HCl, pH 9, for 30 min at 37° C. [^14C] Ethanolamine produced from [^14C] AEA hydrolysis was measured by scintillation counting of the aqueous phase after extraction of the incubation mixture with 2 volumes of CHCl3/CH3OH 2:1 (by vol.).
as §1

[4] = tested on: mice; test: Mouse tetrad of behavioral tests, i.v. (Example 3); format: in vivo; settings: for Average ED50 / R.I. ED50 / Rectal temp. ED50 / Spontan. activity ED50 / Tail Flick ED50: i.v.; for R.I. ED50 / Rectal temp. ED50 / Spontan. activity ED50 / Tail Flick ED50: mean (range)
Method: (§2) The analogs were administered to mice by tail-vein injection and evaluated for their ability to produce hypomotility, hypothermia, and antinociception. These pharmacological measures were determined in the same mouse at a time when maximal activity was present. […] A 10-sec maximum latency was used. Antinociception was expressed as % MPE as described below.
Data Analysis—For production of hypomotility and hypothermia, the data were expressed as a percentage of control activity and change in temperature, respectively. Antinociception was calculated according to the following equation.
% MPE=−((test latency-control latency)/(10s-control latency))×100
At least six animals were treated with each dose-response relationships could be determined for each analog. ED50 values were determined from least-squares unweighted linear regression analysis of log dose-response plots.
The ED50 (milligrams per kilogram, i.v.) does for inhibition of sector crossings (spontaneous activity) in an open field, antinociception (delay in seconds in the tail-flick response), decrease of rectal temperature in degrees Celsius, and induction of time spent in immobility on a ring are shown. Data are means (and ranges) of N>six animals.

[5] = tested on: mice; test: SR141716A pre-treatment before compounds in spontaneous activity and tail-flick tests in mice; format: in vivo, mouse; settings: for effect of SR141716A pre-treatment on the compound's effects in the tetrad tests: SR141716A 3 mg/kg i.v., 10 min pre-treatment; for Spontaneous Activity (Beam Interuptions), SR14176a + comp / Tail-Flick Latency (% MPE), SR14176a + comp: SR14176A 3 mg/kg i.v. 10 min before
Method: as §2
Data are means ±S.E. of n≧six animals.

[6] = target: T3, CB1 receptors (Rattus norvegicus, UniProt P20272); test: Agonist-stimulated [35S]GTPγS binding, rat hippocampal membranes; settings: for Emax: read-out: GTPγS binding (Emax)
[7] = target: human VR1 receptor (Homo sapiens, UniProt Q8NER1); test: Cytosolic calcium concentration assay in HEK-hVR1 cells (Example 3); settings: for Emax: read-out: hVR1 efficacy (maximal effect, in parentheses)
[8] = target: T3, CB1 receptors; test: CB1 receptor binding, [3H]CP55940, whole rat brain membranes (Example 3)
[9] = tested on: anandamide membrane transporter (AMT); settings: RBL-2H3 cells; read-out: AMT IC50 (previously reported); cited from earlier work
[10] = tested on: mice; settings: cited from earlier work
[11] = tested on: rat or human VR1; settings: cited from earlier work

T3 sequence (P20272 whole entry): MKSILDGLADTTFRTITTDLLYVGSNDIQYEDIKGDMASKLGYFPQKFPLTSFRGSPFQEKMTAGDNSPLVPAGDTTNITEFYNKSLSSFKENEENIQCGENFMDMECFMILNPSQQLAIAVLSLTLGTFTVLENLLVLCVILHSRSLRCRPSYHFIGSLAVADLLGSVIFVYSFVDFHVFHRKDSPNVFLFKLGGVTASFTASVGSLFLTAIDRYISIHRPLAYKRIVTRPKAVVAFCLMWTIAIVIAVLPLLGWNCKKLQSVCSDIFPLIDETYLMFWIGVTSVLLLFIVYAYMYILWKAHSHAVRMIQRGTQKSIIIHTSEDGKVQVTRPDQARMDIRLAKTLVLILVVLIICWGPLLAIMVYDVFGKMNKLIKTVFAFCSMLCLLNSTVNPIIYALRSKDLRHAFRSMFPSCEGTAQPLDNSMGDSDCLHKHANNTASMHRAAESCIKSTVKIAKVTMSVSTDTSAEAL
human VR1 receptor, sequence (Q8NER1 whole entry): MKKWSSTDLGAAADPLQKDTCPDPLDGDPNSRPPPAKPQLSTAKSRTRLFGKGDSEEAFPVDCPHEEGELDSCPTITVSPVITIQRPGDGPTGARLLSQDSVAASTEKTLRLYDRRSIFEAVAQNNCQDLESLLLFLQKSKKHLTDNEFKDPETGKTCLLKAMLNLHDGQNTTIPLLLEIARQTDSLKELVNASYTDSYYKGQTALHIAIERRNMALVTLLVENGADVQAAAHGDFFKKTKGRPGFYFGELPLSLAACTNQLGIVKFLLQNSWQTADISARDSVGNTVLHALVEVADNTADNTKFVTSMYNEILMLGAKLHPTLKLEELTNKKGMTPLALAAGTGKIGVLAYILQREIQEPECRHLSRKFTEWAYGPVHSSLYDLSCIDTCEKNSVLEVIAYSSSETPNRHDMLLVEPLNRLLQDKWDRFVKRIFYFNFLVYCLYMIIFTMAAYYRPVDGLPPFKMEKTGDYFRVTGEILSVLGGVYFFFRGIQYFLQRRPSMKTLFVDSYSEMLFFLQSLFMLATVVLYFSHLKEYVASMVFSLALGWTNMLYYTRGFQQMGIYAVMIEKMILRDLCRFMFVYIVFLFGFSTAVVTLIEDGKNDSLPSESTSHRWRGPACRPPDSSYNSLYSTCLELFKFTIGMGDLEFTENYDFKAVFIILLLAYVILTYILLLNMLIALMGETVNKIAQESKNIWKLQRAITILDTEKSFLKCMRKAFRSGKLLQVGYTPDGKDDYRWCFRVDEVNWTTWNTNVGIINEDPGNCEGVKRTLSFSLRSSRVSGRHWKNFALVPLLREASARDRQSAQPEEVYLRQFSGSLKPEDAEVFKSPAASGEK

CCCCC/C=C\C/C=C\C/C=C\C/C=C\CCCC(=O)NCCO [AEA, arachidonoylethanolamide]
EC50 [1]: 1 to 5 µM

CCCCC/C=C\C/C=C\C/C=C\C/C=C\CCCC(=O)N(C)Cc1ccc(O)c(OC)c1 [Compound O-1988]
IC50 [2]: 10 ± 2.1 µM
IC50 [3]: > 50 µM
Average ED50 [4]: 5.98 milligrams per kilogram
R.I. ED50 [4]: 4.08 (2.99-5.56) milligrams per kilogram
Rectal temp. ED50 [4]: 8.74 (5.61-13.60) milligrams per kilogram
Spontan. activity ED50 [4]: 3.11 (1.54-6.29) milligrams per kilogram
Tail Flick ED50 [4]: 7.98 (5.17-12.34) milligrams per kilogram
effect of SR141716A pre-treatment on the compound's effects in the tetrad tests [5]: not affected
Spontaneous Activity (Beam Interuptions), vehicle + compound ([5]; dose 3 mg/kg i.v.): 766 ± 157 Beam Interuptions
Tail-Flick Latency (% MPE), vehicle + compound ([5]; dose 3 mg/kg i.v.): 54 ± 9 % MPE
Spontaneous Activity (Beam Interuptions), SR14176a + comp ([5]; dose 3 mg/kg i.v.): 689 ± 68 Beam Interuptions
Tail-Flick Latency (% MPE), SR14176a + comp ([5]; dose 3 mg/kg i.v.): 67 ± 15 % MPE
Spontaneous Activity (Beam Interuptions), vehicle + compound ([5]; dose 10 mg/kg i.v.): 179 ± 34 Beam Interuptions
Tail-Flick Latency (% MPE), vehicle + compound ([5]; dose 10 mg/kg i.v.): 100 % MPE
Spontaneous Activity (Beam Interuptions), SR14176a + comp ([5]; dose 10 mg/kg i.v.): 117 ± 17 Beam Interuptions
Tail-Flick Latency (% MPE), SR14176a + comp ([5]; dose 10 mg/kg i.v.): 100 % MPE
Emax [6]: 0%
EC50 [7]: 0.025 ± 0.0039 µM
Emax [7]: 69.1%
Ki ([8]; read-out: CB1 affinity Ki): 2.83 ± 0.175 µM

CCCCC/C=C\C/C=C\C/C=C\C/C=C\CCCC(=O)NCc1ccc(O)c(Cl)c1 [Compound O-2094]
IC50 [2]: 19 ± 2.1 µM
IC50 [3]: 4.5 ± 0.7 µM
ED50 ([4]; Mus musculus, iv, read-out: ED50 values, range over the four parameters of the mouse 'tetrad'): 0.49 to 3.77 mg/kg
Average ED50 [4]: 1.68 milligrams per kilogram
R.I. ED50 [4]: 1.93 (1.56-2.39) milligrams per kilogram
Rectal temp. ED50 [4]: 3.77 (1.21-11.76) milligrams per kilogram
Spontan. activity ED50 [4]: 0.52 (0.38-0.71) milligrams per kilogram
Tail Flick ED50 [4]: 0.49 (0.35-0.67) milligrams per kilogram
effect of SR141716A pre-treatment on the compound's effects in the tetrad tests [5]: not affected
effect of SR141716A pre-treatment on the compound's effects in the tetrad tests ([5]; listed as 0-2094): No inhibitory effect
Spontaneous Activity (Beam Interuptions), vehicle + compound ([5]; dose 1 mg/kg i.v.): 83 ± 17 Beam Interuptions
Tail-Flick Latency (% MPE), vehicle + compound ([5]; dose 1 mg/kg i.v.): 94 ± 5 % MPE
Spontaneous Activity (Beam Interuptions), SR14176a + comp ([5]; dose 1 mg/kg i.v.): 116 ± 21 Beam Interuptions
Tail-Flick Latency (% MPE), SR14176a + comp ([5]; dose 1 mg/kg i.v.): 100 % MPE
Spontaneous Activity (Beam Interuptions), vehicle + compound ([5]; dose 3 mg/kg i.v.): 118 ± 16 Beam Interuptions
Tail-Flick Latency (% MPE), vehicle + compound ([5]; dose 3 mg/kg i.v.): 100 % MPE
Spontaneous Activity (Beam Interuptions), SR14176a + comp ([5]; dose 3 mg/kg i.v.): 52 ± 19 Beam Interuptions
Tail-Flick Latency (% MPE), SR14176a + comp ([5]; dose 3 mg/kg i.v.): 96 ± 4 % MPE
EC50 [6]: 0.131 µM
activity in the GTPγS binding assay [6]: low efficacy partial agonist
Emax [6]: 15%
EC50 [7]: 0.01 µM
Emax [7]: 63.5%
Ki ([8]; read-out: CB1 affinity Ki): 0.275 ± 0.016 µM
Ki ([8]; read-out: CB1 affinity Ki, listed as 0-2094): 0.274 ± 0.019 µM

CCCCC/C=C\C/C=C\C/C=C\C/C=C\CCCNC(=S)NCc1ccc(O)c(OC)c1 [Compound O-2095]
IC50 [2]: 7.5 ± 1.8 µM
IC50 [3]: > 50 µM
Average ED50 [4]: 0.05 milligrams per kilogram
R.I. ED50 [4]: 0.08 (0.05-0.12) milligrams per kilogram
Rectal temp. ED50 [4]: 0.03 (0.02-0.07) milligrams per kilogram
Spontan. activity ED50 [4]: 0.02 (0.02-0.03) milligrams per kilogram
Tail Flick ED50 [4]: 0.08 (0.06-0.10) milligrams per kilogram
Emax [6]: 0%
EC50 [7]: 0.0004 ± 0.0001 µM
Emax [7]: 72.1%
Ki ([8]; read-out: CB1 affinity Ki): 8.63 ± 0.13 µM

CCCCC/C=C\C/C=C\C/C=C\C/C=C\CCCNC(=S)NCc1ccc(O)c(Cl)c1 [Compound O-2109]
IC50 [2]: 3.8 ± 0.7 µM
IC50 [3]: > 50 µM
Average ED50 [4]: 0.15 milligrams per kilogram
R.I. ED50 [4]: 0.15 (0.10-0.23) milligrams per kilogram
Rectal temp. ED50 [4]: 0.33 (0.02-5.06) milligrams per kilogram
Spontan. activity ED50 [4]: 0.02 (0.02-0.03) milligrams per kilogram
Tail Flick ED50 [4]: 0.09 (0.06-0.12) milligrams per kilogram
Emax [6]: 0%
EC50 [7]: 0.004 ± 0.0011 µM
fold less potent than O-2095 at VR1 [7]: 10 fold
Ki ([8]; read-out: CB1 affinity Ki): 1.8 ± 0.204 µM

CCCCC/C=C\C/C=C\C/C=C\C/C=C\CCCC(=O)NCc1ccc(OC(=O)CCCN2CCOCC2)c(OC)c1 [Compound O-2142]
IC50 [2]: 30 ± 4.3 µM
IC50 [3]: 9.1 ± 1.7 µM
Average ED50 [4]: 0.17 milligrams per kilogram
R.I. ED50 [4]: 0.17 (0.13-0.22) milligrams per kilogram
Rectal temp. ED50 [4]: 0.11 (0.07-0.17) milligrams per kilogram
Spontan. activity ED50 [4]: 0.20 (0.16-0.24) milligrams per kilogram
Tail Flick ED50 [4]: 0.19 (0.15-0.25) milligrams per kilogram
activity in the GTPγS binding assay [6]: inactive
Emax [6]: 0%
EC50 [7]: 0.0006 ± 0.0002 µM
Emax [7]: 86.6%
Ki ([8]; read-out: CB1 affinity Ki): 0.483 ± 0.063 µM

CCCCC/C=C\C/C=C\C/C=C\C/C=C\CCCC(=O)N[C@H](C)CO [Met-AEA, (R)-1′-Methyl-2′-hydroxy-ethyl-arachidonamide]
IC50 [9]: 24.5 µM

CCCCC/C=C\C/C=C\C/C=C\C/C=C\CCCC(=O)NCc1ccc(O)c(OC)c1 [arvanil, N-[3-methoxy-4-hydroxy-benzyl]-arachidonamide]
IC50 [9]: 3.6 µM
ED50 in the 'tetrad' [10]: 0.085 mg/kg
fold more potent at VR1 than CB1 receptors [11]: approximately 500 fold

— US20040122089A1, “Novel eicosanoid analgesics” (priority 2001, published 2004)
